# US20130143873A1 (priority 2010, published 2013)
# How the values were obtained:
# [1] = tested on: mice; settings: 100 mg/kg (300 mg/m^2); cited from earlier work
# [2] = Blood glucose (hyperglycemia) after daily oral diazoxide in SOD1-G93A transgenic mice; type: in vivo; settings: 4 mg/kg/day (12 mg/m^2/day) and 0.8 mg/kg/day (2.4 mg/m^2/day) p.o., 100 days, glucose at postnatal days 105, 115, 145
# Procedure: (§1) Transgenic C57BL/6J-TgN(SOD1-G93A)1Gur^dl mice were originally purchased from The Jackson Laboratories (Bar Harbor, Me.) and routinely identified as positive carriers of the transgene at early postnatal age by PCR amplification (Garney et al. Motor neuron degeneration in mice that express a human Cu,Zn superoxide dismutase mutation. Science 1994. 264(5166):1772-5). The animal colony was kept under controlled temperature (22±2° C.), humidity (40-60%) and light (12 h cycles), and treated in accordance with the European Community Council directive on animal welfare (86/609/EEC).
# At 40 days postnatal age, mice identified as positive carriers of the SOD1-G93A transgene were randomly assigned to a diazoxide-treatment or control group. The treatment started at postnatal day 45 and lasted until postnatal day 145. […] Each group consists of 3 animals.
# Glucose blood levels were measured at postnatal days 105, 115 and 145. Measurements were performed immediately before drug administration (time 0) and at 60 minutes. Blood samples were obtained from the saphenous vein and glucose levels were determined using a glucometer and glucose test strips (Accu-Chek® Aviva, Roche Diagnostics, Indianapolis, Ind., USA). For each group, hyperglycemia was considered when glucose concentration was equal or higher than 176 mg/dl.
# [3] = tested on: C57BL/6J-TgN(SOD1-G93A)1Gur^dl transgenic mice; assay: Motor nerve conduction, tibialis anterior CMAP amplitude, in transgenic mice model for amyotrophic lateral sclerosis; type: in vivo; settings: postnatal day 45 to 85; for increase in the amplitude of the tibialis anterior CMAP compared with the vehicle control group: 100% = mean CMAP amplitude of wild type control group
# Procedure: as §1
# At 40 days postnatal age, mice identified as positive carriers of the SOD1-G93A transgene were randomly assigned to a diazoxide-treatment or control group. An additional group composed by wild type C57BL/6J was also used as absolute control for nerve conduction measurements. The treatment started at postnatal day 45 and lasted until postnatal day 85. The drug was administered daily orally by gavage (p.o.), in a dose volume of 200 μl. […] Each group consists of 8 animals.
# At postnatal day 85 days, animals were tested for nerve conduction measurament. For motor nerve conduction tests, the sciatic nerve was stimulated percutaneously by means of single pulses of 0.02 ms duration (Grass S88) delivered through a pair of needle electrodes placed at the sciatic notch. The Compound Muscle Action Potential (CMAP, M wave) was recorded from the tibialis anterior (TA) with microneedle electrodes. […] To ensure reproducibility, the recording needles were placed under microscope to secure the same placement on all animals guided by anatomical landmarks. During the tests, the mice body temperature was kept constant by means of a thermostated warming pad.
# [4] = tested on: C57BL/6J-TgN(SOD1-G93A)1Gur^dl transgenic mice; assay: Disease onset (time of peak body weight) in transgenic mice model for amyotrophic lateral sclerosis; type: in vivo; settings: postnatal day 45 to 145
# Procedure: as §1
# At 40 days postnatal age, mice identified as positive carriers of the SOD1-G93A transgene were randomly assigned to a diazoxide-treatment or control group. The treatment started at postnatal day 45 and lasted until postnatal day 145. […] Each group consists of 30 animals.
# The disease onset was determined as the time when the mouse reached its peak body weight.
# [5] = Blood glucose (hyperglycemia) after daily oral diazoxide in C57BL/6J mice; type: in vivo; settings: female C57BL/6J mice; 1 mg/kg (3 mg/m^2) and 0.05 mg/kg (0.15 mg/m^2) p.o. daily; 30 days; glucose at time 0 and 60 minutes
# Procedure: Female C57BL/6J mice, 11 weeks of age, were purchased from Charles River and maintained on a 12:12 hr light:dark cycle, with standard chow and water freely available. The experiments began at 11:00 h. […] From day 4 on, glucose blood levels were measured every 3-4 days during the 30-day treatment period. Measurements were performed immediately before drug administration (time 0) and at 60 minutes. Blood samples were obtained from the saphenous vein and glucose levels were determined using a glucometer and glucose test strips (Accu-Chek® Aviva, Roche Diagnostics, Indianapolis, Ind., USA). For each group, hyperglycemia was considered when glucose concentration was equal or higher than 176 mg/dl.
# [6] = tested on: C57BL/6J-TgN(SOD1-G93A)1Gur^dl transgenic mice; assay: Survival in transgenic mice model for amyotrophic lateral sclerosis; type: in vivo
# Procedure: as §1
# At 70 days postnatal age, mice identified as positive carriers of the SOD1-G93A transgene were randomly assigned to a diazoxide-treatment or control group. An additional group composed by wild type C57BL/6J was also used as absolute control for spontaneous deaths. The treatment started at postnatal day 70 and lasted until the animal was sacrificed. […] Each group consists of 14 animals.
# Around 75 days of postnatal age treated and not treated mice began to display less exploratory activity and less feeding behaviour as well as a loss of body weight. 20-30 days after, motor deficits were clearly observable, with a continuous loss of muscular mass and body weight. Between postnatal day 137 and 172 animals began to not be able to right themselves within 30 seconds from either side being this their last period of survival. Date and cause of death were recorded for each mouse. For humanitarian reasons, animals were closely monitored and sacrificed as moribund prior to actual death using criteria for severe moribund state. To determine duration of survival reliably and humanely, the moribund state, defined as the inability of mice to right themselves 30 seconds after being placed on a side was used. The moribund mice were considered as “dead”, and were euthanized using carbon dioxide. It is known that when animals reach this “moribund” stage they are unable to survive more than 24 additional hours.
# [7] = 0.05 mg/kg/day (0.15 mg/m^2/day) p.o. from postnatal day 70
# [8] = 0.1 mg/kg/day (0.3 mg/m^2/day) p.o. from postnatal day 70
# [9] = 1 mg/kg/day (3 mg/m^2/day) p.o. from postnatal day 70
compound,measurement,setting,value
CC1=NS(=O)(=O)c2cc(Cl)ccc2N1 [Diazoxide],effect on bupivacaine-induced acute CNS toxicity (latency of convulsions),[1],reduce the bupivacaine-induced actute CNS toxicity
same,hyperglycemia (glucose concentration equal or higher than 176 mg/dl),[2],none of the two doses tested in this study produced hyperglycemia
same,increase in the amplitude of the tibialis anterior CMAP compared with the vehicle control group,[3]; 0.8 mg/kg/day (2.4 mg/m2/day) p.o.,17.1%
same,increase in the amplitude of the tibialis anterior CMAP compared with the vehicle control group,[3]; 4 mg/kg/day (12 mg/m2/day) p.o.,3.4%
same,amplitude of the tibialis anterior CMAP compared to the vehicle control group,[3]; 8 mg/kg/day (24 mg/m^2/day) p.o.,no differences
same,Median Age of Disease Onset,[4]; 0.8 mg/kg/day (2.4 mg/m^2/day) p.o.,121 days
same,Median Age of Disease Onset,[4]; 4 mg/kg/day (12 mg/m^2/day) p.o.,116 days
same,hyperglycemia (glucose concentration equal or higher than 176 mg/dl),[5],none of the two doses tested in this study produced hyperglycemia
same,Median Survival,[6]; [7],153 days
same,Percentage of mice alive at age of 21 weeks,[6]; [7],78.6%
same,Percentage of mice alive at age of 21 weeks,"[6]; 0.05 mg/kg/day (0.15 mg/m^2/day) p.o. from postnatal day 70, listed as diazoxide",78.6%
same,Median Survival,[6]; [8],152 days
same,Percentage of mice alive at age of 21 weeks,[6]; [8],71.4%
same,Percentage of mice alive at age of 21 weeks,"[6]; 0.1 mg/kg/day (0.3 mg/m^2/day) p.o. from postnatal day 70, listed as diazoxide",71.4%
same,Median Survival,[6]; [9],156 days
same,Percentage of mice alive at age of 21 weeks,[6]; [9],85.7%
same,Percentage of mice alive at age of 21 weeks,"[6]; 1 mg/kg/day (3 mg/m^2/day) p.o. from postnatal day 70, listed as diazoxide",85.7%
